Source: US12590091B2, “1H-pyrrolo[3,2-C]pyridine and 1H-pyrrolo[2,3-C]pyridine derivatives as TLR9 inhibitors for the treatment of fibrosis” (BRISTOL-MYERS SQUIBB COMPANY, priority 2020, dated 2026)
pIC50: −log10 of the molar value.

Columns and labels:
[1] = molecular target: T1, human TLR7 (Homo sapiens, UniProt Q9NYK1); experiment: TLR7 inhibition reporter assay (HEK-Blue cells, SEAP reporter); assay type: cell-based; conditions: HEK-Blue cells overexpressing human TLR7, stimulated with gardiquimod 7.5 μM, 22 hour incubation
T1 construct: host or cells: HEK-Blue cells
T1 sequence (Q9NYK1 27-1049): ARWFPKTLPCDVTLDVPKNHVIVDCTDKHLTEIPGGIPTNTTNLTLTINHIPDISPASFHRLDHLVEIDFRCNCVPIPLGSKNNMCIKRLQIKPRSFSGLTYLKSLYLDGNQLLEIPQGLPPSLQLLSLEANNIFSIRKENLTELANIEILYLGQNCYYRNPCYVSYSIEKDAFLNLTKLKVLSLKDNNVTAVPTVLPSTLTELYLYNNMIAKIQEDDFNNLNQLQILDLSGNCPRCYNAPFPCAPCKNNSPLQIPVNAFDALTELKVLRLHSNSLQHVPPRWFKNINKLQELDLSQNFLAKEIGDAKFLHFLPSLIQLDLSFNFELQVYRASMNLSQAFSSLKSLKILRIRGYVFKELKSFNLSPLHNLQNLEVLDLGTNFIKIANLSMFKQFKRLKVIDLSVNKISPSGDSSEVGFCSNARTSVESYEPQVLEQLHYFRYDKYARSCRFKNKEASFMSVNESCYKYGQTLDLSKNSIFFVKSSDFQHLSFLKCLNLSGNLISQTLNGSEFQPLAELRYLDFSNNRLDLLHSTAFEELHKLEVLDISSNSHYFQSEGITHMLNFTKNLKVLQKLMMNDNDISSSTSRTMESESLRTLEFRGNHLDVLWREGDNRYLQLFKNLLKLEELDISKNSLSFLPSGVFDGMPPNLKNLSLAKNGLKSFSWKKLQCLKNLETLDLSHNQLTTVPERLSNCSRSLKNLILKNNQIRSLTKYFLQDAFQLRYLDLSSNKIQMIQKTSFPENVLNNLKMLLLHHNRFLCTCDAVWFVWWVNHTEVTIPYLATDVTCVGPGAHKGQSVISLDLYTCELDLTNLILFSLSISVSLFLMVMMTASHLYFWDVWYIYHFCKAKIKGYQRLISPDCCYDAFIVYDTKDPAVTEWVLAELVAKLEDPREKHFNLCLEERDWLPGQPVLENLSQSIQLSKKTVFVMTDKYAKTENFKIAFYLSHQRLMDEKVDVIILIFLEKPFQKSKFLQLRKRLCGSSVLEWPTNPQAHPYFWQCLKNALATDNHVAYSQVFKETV
Description: (§1) TLR7/8/9 Inhibition Reporter Assays
(§2) HEK-Blue™-cells (Invivogen) overexpressing human TLR7, TLR8 or TLR9 receptors were used for screening inhibitors of these receptors using an inducible SEAP (secreted embryonic alkaline phosphatase) reporter gene under the control of the IFN-β minimal promoter fused to five NF-κB and AP-1-binding sites. Briefly, cells are seeded into Greiner 384 well plates (15000 cells per well for TLR7, 20,000 for TLR8 and 25,000 for TLR9) and then treated with test compounds in DMSO to yield a final dose response concentration range of 0.05 nM-50 μM. After a 30 minute compound pre-treatment at room temperature, the cells are then stimulated with a TLR7 ligand (gardiquimod at a final concentration of 7.5 μM), TLR8 ligand (R848 at a final concentration of 15.9 μM) or TLR9 ligand (ODN2006 at a final concentration of 5 nM) to activate NF-κB and AP-1 which induce the production of SEAP. After a 22 hour incubation at 37° C., 5% CO2, SEAP levels are determined with the addition of HEK-Blue™ Detection reagent (Invivogen), a cell culture medium that allows for detection of SEAP, according to manufacturer's specifications. The percent inhibition is determined as the % reduction in the HEK-Blue signal present in wells treated with agonist plus DMSO alone compared to wells treated with a known inhibitor.

[2] = molecular target: T2, human TLR8 (Homo sapiens, UniProt Q9NR97); experiment: TLR8 inhibition reporter assay (HEK-Blue cells, SEAP reporter); assay type: cell-based; conditions: HEK-Blue cells overexpressing human TLR8, stimulated with R848 15.9 μM, 22 hour incubation
T2 construct: host or cells: HEK-Blue cells
T2 sequence (Q9NR97 27-1041): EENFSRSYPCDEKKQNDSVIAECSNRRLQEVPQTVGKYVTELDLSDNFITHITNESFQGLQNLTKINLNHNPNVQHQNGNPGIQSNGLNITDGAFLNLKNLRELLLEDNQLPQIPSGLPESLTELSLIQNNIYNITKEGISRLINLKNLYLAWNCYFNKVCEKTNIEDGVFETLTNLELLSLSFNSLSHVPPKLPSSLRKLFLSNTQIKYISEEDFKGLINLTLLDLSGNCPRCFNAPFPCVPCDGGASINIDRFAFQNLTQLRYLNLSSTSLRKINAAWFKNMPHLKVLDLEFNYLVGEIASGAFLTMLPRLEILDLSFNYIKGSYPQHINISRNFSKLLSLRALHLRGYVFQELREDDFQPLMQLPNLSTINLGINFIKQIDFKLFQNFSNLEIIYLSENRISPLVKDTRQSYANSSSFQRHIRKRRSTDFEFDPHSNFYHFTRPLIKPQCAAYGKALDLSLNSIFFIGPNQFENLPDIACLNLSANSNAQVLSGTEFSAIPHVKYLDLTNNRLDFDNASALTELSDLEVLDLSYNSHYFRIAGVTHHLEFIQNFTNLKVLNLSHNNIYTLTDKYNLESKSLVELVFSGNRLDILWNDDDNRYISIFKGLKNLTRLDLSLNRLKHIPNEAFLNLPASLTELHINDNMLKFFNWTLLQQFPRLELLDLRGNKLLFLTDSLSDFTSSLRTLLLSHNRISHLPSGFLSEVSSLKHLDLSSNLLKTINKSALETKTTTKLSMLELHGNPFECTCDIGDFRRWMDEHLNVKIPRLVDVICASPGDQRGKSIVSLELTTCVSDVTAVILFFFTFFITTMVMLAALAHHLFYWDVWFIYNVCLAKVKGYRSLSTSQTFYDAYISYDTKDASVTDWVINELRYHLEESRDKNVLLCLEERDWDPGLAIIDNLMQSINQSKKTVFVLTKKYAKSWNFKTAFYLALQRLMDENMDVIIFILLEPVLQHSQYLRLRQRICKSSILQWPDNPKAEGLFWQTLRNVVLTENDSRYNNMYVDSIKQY
Description: as §1, §2

Row | pIC50 [1] | pIC50 [2] | SMILES
1 | 5.24 | 4.32 | COc1ccc(-c2c(C)[nH]c3cnc(C4CCN(C(=O)CN5CCCCC5)CC4)cc23)cc1OC [Example 16, 1-(4-(3-(3,4-dimethoxyphenyl)-2-methyl-1H-pyrrolo[2,3-c]pyridin-5-yl)piperidin-1-yl)-2-(piperidin-1-yl)ethan-1-one]
2 | 5.24 | < 4.30 | Cc1nc(-c2ccc(N3CCN(CCCO)CC3)c(F)c2F)cc2c1cc(-c1ccc(S(C)(=O)=O)cc1)n2C [Example 55, 3-(4-(4-(1,4-dimethyl-2-(4-(methylsulfonyl)phenyl)-1H-pyrrolo[3,2-c]pyridin-6-yl)-2,3-difluorophenyl)piperazin-1-yl)propan-1-ol]
3 | 5.80 | 4.71 | COCCN1C2CCC1CN(c1ccc(-c3cc4c(cc(-c5ccc(S(C)(=O)=O)cc5)n4C)c(C)n3)cc1)C2 [Example 74, 6-(4-(8-(2-methoxyethyl)-3,8-diazabicyclo[3.2.1]octan-3-yl)phenyl)-1,4-dimethyl-2-(4-(methylsulfonyl)phenyl)-1H-pyrrolo[3,2-c]pyridine]
4 | 4.87 | < 4.30 | COc1ccc(-c2c(C)n(C)c3cnc(C4CCN(C5CCN(C(=O)C(C)C)CC5)CC4)cc23)cc1OC [Example 18, 1-(4-(3-(3,4-dimethoxyphenyl)-1,2-dimethyl-1H-pyrrolo[2,3-c]pyridin-5-yl)-[1,4′-bipiperidin]-1′-yl)-2-methylpropan-1-one]
5 | < 4.30 | < 4.30 | Cc1nc(-c2ccc(CN3CCN(CC(C)(C)O)CC3)cc2)cc2c1cc(-c1ccc(S(C)(=O)=O)cc1)n2C(F)F [Example 124, 1-(4-(4-(1-(difluoromethyl)-4-methyl-2-(4-(methylsulfonyl)phenyl)-1H-pyrrolo[3,2-c]pyridin-6-yl)benzyl)piperazin-1-yl)-2-methylpropan-2-ol]
6 | 5.22 | 5.12 | Cc1nc(-c2ccc(CN3CCN(CC(C)C)CC3)cc2)cc2c1cc(-c1ccc(S(C)(=O)=O)cc1)n2C [Example 57, 6-(4-((4-isobutylpiperazin-1-yl)methyl)phenyl)-1,4-dimethyl-2-(4-(methylsulfonyl)phenyl)-1H-pyrrolo[3,2-c]pyridine]
7 | 5.31 | < 4.78 | Cc1nc(-c2ccc(C3CCN(CCCO)CC3)cc2)cc2c1cc(-c1ccc(S(C)(=O)=O)cc1)n2C [Example 41, 3-(4-(4-(1,4-Dimethyl-2-(4-(methylsulfonyl)phenyl)-1H-pyrrolo[3,2-c]pyridin-6-yl)phenyl)piperidin-1-yl)propan-1-ol]
8 | 5.21 | 5.57 | Cc1nc(-c2cc(F)c(N3CCNCC3)cc2F)cc2c1cc(-c1ccc(S(C)(=O)=O)cc1)n2C [Example 43, 6-(2,5-Difluoro-4-(piperazin-1-yl)phenyl)-1,4-dimethyl-2-(4-(methylsulfonyl)phenyl)-1H-pyrrolo[3,2-c]pyridine]
9 | 5.77 | 5.82 | Cc1nc(-c2ccc(C3(O)CCN(C(C)(C)C)CC3)cc2F)cc2c1cc(-c1ccc(S(C)(=O)=O)cc1)n2C [Example 108, 1-(tert-butyl)-4-(4-(1,4-dimethyl-2-(4-(methylsulfonyl)phenyl)-1H-pyrrolo[3,2-c]pyridin-6-yl)-3-fluorophenyl)piperidin-4-ol]
10 | 4.76 | < 4.30 | COc1ccc(-c2c(C)c3cc(C4CCN(C5CCN(CC(C)C)CC5)CC4)ncc3n2C)cc1OC [Example 13, 2-(3,4-dimethoxyphenyl)-5-(1′-isobutyl-[1,4′-bipiperidin]-4-yl)-1,3-dimethyl-1H-pyrrolo[2,3-c]pyridine]
11 | 5.48 | 4.42 | COc1ccc(-c2c(C)n(C)c3cnc(-c4ccc(N5CCN(CC(C)(C)O)CC5)cc4)cc23)cc1OC [Example 3, 1-(4-(4-(3-(3,4-Dimethoxyphenyl)-1,2-dimethyl-1H-pyrrolo[2,3-c]pyridin-5-yl)phenyl)piperazin-1-yl)-2-methylpropan-2-ol]
12 | 5.68 | < 4.60 | COCCN1CCN(c2ccc(-c3cc4c(cc(-c5ccc(S(=O)(=O)C6CC6)cc5)n4C)c(C)n3)cc2)CC1 [Example 48, 2-(4-(cyclopropylsulfonyl)phenyl)-6-(4-(4-(2-methoxyethyl)piperazin-1-yl)phenyl)-1,4-dimethyl-1H-pyrrolo[3,2-c]pyridine]
13 | 6.22 | 4.74 | Cc1nc(-c2ccc(N3CC4CCC(C3)N4CCCO)cc2)cc2c1cc(-c1ccc(S(C)(=O)=O)cc1)n2C [Example 76, 3-(3-(4-(1,4-dimethyl-2-(4-(methylsulfonyl)phenyl)-1H-pyrrolo[3,2-c]pyridin-6-yl)phenyl)-3,8-diazabicyclo[3.2.1]octan-8-yl)propan-1-ol]
14 | 5.85 | < 4.30 | COc1ccc(-c2c(C)n(C)c3cnc(-c4ccc(N5CCN(C(C)C)CC5)cc4)cc23)cc1OC [Example 32, 3-(3,4-dimethoxyphenyl)-5-(4-(4-isopropylpiperazin-1-yl)phenyl)-1,2-dimethyl-1H-pyrrolo[2,3-c]pyridine]
15 | 6.22 | < 4.30 | CC(C)(O)CN1C2CCC1CN(Cc1ccc(-c3cc4c(cn3)cc(-c3ccc(S(C)(=O)=O)cc3)n4C3CC3)cc1)C2 [Example 121, 1-[3-[[4-[1-cyclopropyl-2-(4-methylsulfonylphenyl)pyrrolo[3,2-c]pyridin-6-yl]phenyl]methyl]-3,8-diazabicyclo[3.2.1]octan-8-yl]-2-methyl-propan-2-ol]
16 | 5.57 | 5.02 | Cc1nc(-c2cc(F)c(N3CC4CCC(C3)N4CCCO)cc2F)cc2c1cc(-c1ccc(S(C)(=O)=O)cc1)n2C [Example 79, 3-(3-(4-(1,4-dimethyl-2-(4-(methylsulfonyl)phenyl)-1H-pyrrolo[3,2-c]pyridin-6-yl)-2,5-difluorophenyl)-3,8-diazabicyclo[3.2.1]octan-8-yl) propan-1-ol]
17 | 5.33 | < 4.60 | Cc1nc(-c2ccc(N3CCN(CCCO)CC3)cc2)cc2c1cc(-c1ccc(S(C)(=O)=O)cc1)n2C [Example 36, 3-(4-(4-(1,4-dimethyl-2-(4-(methylsulfonyl)phenyl)-1H-pyrrolo[3,2-c]pyridin-6-yl)phenyl)piperazin-1-yl)propan-1-ol]
